Where a name gives a salt, the structure may show the parent alone.
Legend:
[1] = Excipient compatibility by DSC; type: physicochemical; conditions: 1:1 (w/w) mixtures with xanthan gum, chitosan, magnesium stearate, NaHCO3
Description: Samples of 5-10 mg in weight were placed in hermetically sealed DSC pans. Samples were scanned at a rate of 10° C./min, and thermograms were obtained. The thermal analyzer (DSC) was calibrated prior to use by indium. The calibration procedure was repeated many times prior to DSC runs.

[2] = administered orally; cited from earlier work
[3] = cited from earlier work

Q: For `CC(C)(C)NCC(O)c1cc(O)cc(O)c1` (stereo not drawn) [Terbutaline sulfate], which “Excipient compatibility (DSC thermograms)” value [1] is on record?
A: excipients are compatible with Terbutaline sulfate

Q: And the Biological half-life [2]?
A: about 3.6 hrs

Q: And the Solubility in water [3]?
A: > 20 mg/mL

Reference: patent US20080206334A1 (priority 2005, published 2008)
